Measurements reported in patent US20100047332A1, “Treatments for burns using thyroid hormone compound in a human” (priority 2005, published 2010).

Key:
[1] = tested on: plasma glycerol (lipolysis of fat); experiment: Plasma glycerol assay before and after mild exercise with topical TriAc cream; type: in vivo, human; details: for glycerol response relative to baseline: Triac applied; for Percentage change: glycerol after exercise vs baseline
From the text: This example uses a glycerol assay to determine the effectiveness of topically applied thyroid hormones or thyroid hormone like molecules as described in the art to increase lipolysis of fat when topically applied. More specifically, this example uses a glycerol assay to determine the effectiveness of topically applied thyroid hormones or thyroid hormone like molecules as described in the art to dissolve fat when topically applied in an amount less than a single oral dose used typically for daily therapeutic or replacement dosages.
Three adult humans (A, B, and C) with normally functioning thyroids and no history of cardiovascular disease, varying by age, sex, BMI, body surface area, and physical activity, were tested. Age varies from less than 25 (subject A) to over 40 (subjects B and C). BMI varied between 18 (A), 20 (C), and 30 (B). Physical activity was greatest in subject A, who had the lowest BMI and was also the youngest. The other two subjects typically had less than three hours of exercise per week. No food or drink other than water was given two hours prior to application of the TriAc formulation. With this short fast, the subjects are still in the fed state and plasma glycerol levels would be expected to not change during exercise, as taught in the literature for young fit subjects (Coyle et al, J Appl Physiol. 1985 August; 59(2):429-33, herein incorporated by reference). The fed state as defined herein is an individual not having an overnight fast. […] The amount of cream and thus TriAc amount was not varied according to age, sex, or weight. The cream was applied intermittently: application days were separated by at least two days.
The subjects rested for 30 minutes and then exercised in a defined manner to maintain either 65-70% of their age adjusted maximal heart rate or 110-120 strides on a Precor 544 EFX elliptical trainer for 30 minutes. Heart rate was monitored continuously with a Polar wireless monitoring device. Room temperature varied between 72 and 84 degrees. Calories expended (from Precor) per kilogram were approximately constant among each participant and between participants on a per kilogram basis during each of the exercise sessions and were usually around 3.0 to 3.5 calories per kg (see Table 4). After a 30 minute exercise session and a 5 minute programmed cool down session, another plasma glycerol assay was taken. The samples were immediately refrigerated and centrifuged after 0 to 10 hours, each exercise set treated exactly the same way, frozen at −40° C. and assayed with the Sigma-Aldrich plasma glycerol assay after deproteinization. Exercise time was fixed at a regular time of day. The next day, the experiment was repeated. The order was placebo day, then treatment day.
The magnitude of the change pre and post exercise with and without TriAc was calculated and the percentage change from baseline with and without TriAc was calculated.

[2] = tested on: second degree partial thickness scald burn; experiment: TriAc cream applied intermittently to a scalding burn in a burn patient; type: in vivo, human
Experimental: The water content was 65 to 75%, with approximately 30% solids. The semi solid cream formulation includes water, emulsifier, aloe vera, and less than 1% of d-tocopherol acetate or equivalent, panthenol, and retinyl palmitate.
On scalding burn day 0, ice was applied all night. The wound appeared as a large reddish area approximately 15 by 30 cm, with an area of white skin approximately 10 by 10 cm. The cream was applied to the entire area in an amount of much less than 1 gm (less than 80 μg per 400 cm^2) on the evening of Day 1, 24 hours post burn. The worst blistering and numbness was over the whitish area. Over the next 48 hours, the wound became somewhat less painful and the white area started to become pink and then red. The outer area extending over the knee remained red. This burn was therefore a split thickness second degree burn with areas of third degree burn.
The cream was applied again on the evening of Day 3, 72 hours post burn, only to a small area of most burned blistered skin over the original whitish area. […] Prior to application of the cream, the entire area was brilliantly red.
The cream was applied again on the evening of Day 4 over the entire area during this application. […] The entire area of the burn now had brownish epidermis in the process of being sloughed. […] FIGS. 1 and 2 are separated by approximately 36 hours.
This is six 24 hour periods from the time of the burn. […] The outline of the burn injury can clearly be seen by examining the margins of the wound.

[3] = tested on: deep dermal pressure ulcer; experiment: TriAc cream on a deep dermal pressure ulcer; type: in vivo, human
From the text: The patient was a active triathlete who had developed a bicycle seat ulcer which was a persistent fissure running from coccyx almost to the anus. The deep dermal pressure ulcer resulted from pressure due to a bicycle seat. This pressure injury frequently was oozing and was generally moist. The fissure was 1-2 mm wide and 2-3 mm deep. It was resistant to a variety of over the counter steroid and anti-fungal creams and lanolin. […] The cream was applied for 4 treatments on an every other day basis, using barely enough to treat the area about 20 cm^2, sometimes every third day. […] Skin has remained intact for close to 6 months. The dermal ulcer in this example was non healing until the cream was used on an intermittent basis

TSH = details: cited from earlier work
[4] = tested on: thyroid hormone receptor TRα or β; details: cited from earlier work
[5] = group, exercise with the TriAc treatment

O=C(O)Cc1cc(I)c(Oc2ccc(O)c(I)c2)c(I)c1 [TriAc, [4-(4-hydroxy-3-iodophenoxy)-3,5-diiodophenyl]acetic acid]
glycerol response relative to baseline ([1]; no exercise, subject A, one experiment): 80%
glycerol response relative to baseline ([1]; no exercise, subject B): 13%
glycerol response relative to baseline ([1]; no exercise, subject C): −40%
glycerol response relative to baseline ([1]; with exercise, subject A): 250%
average increase of the concentration of glycerol [1, 5]: 37 µM
average increase of the concentration of glycerol above baseline [1, 5]: 124%
increase of exercise induced breakdown of fat as evidenced by plasma glycerol ([1]; group, versus placebo): over 300%
Net change in glycerol concentration after exercise ([1]; subject A, Trial 1 Treatment): 67.6 µM
Glycerol Concentration ([1]; subject A, Trial 1 Treatment, 120 micrograms TriAc cream topical, After exercise): 93.7 µM
Glycerol Concentration ([1]; subject A, Trial 1 Treatment, 120 micrograms TriAc cream topical, Before exercise (baseline)): 26.2 µM
Percentage change ([1]; subject A, Trial 1 Treatment): 258.9%
Net change in glycerol concentration after exercise ([1]; subject A, Trial 2 Treatment): 66.2 µM
Glycerol Concentration ([1]; subject A, Trial 2 Treatment, After exercise): 97.9 µM
Glycerol Concentration ([1]; subject A, Trial 2 Treatment, Before exercise (baseline)): 31.7 µM
Percentage change ([1]; subject A, Trial 2 Treatment): 208.7%
Net change in glycerol concentration after exercise ([1]; subject A, Trial 3 Treatment): 23.4 µM
Glycerol Concentration ([1]; subject A, Trial 3 Treatment, After exercise): 42.7 µM
Glycerol Concentration ([1]; subject A, Trial 3 Treatment, Before exercise (baseline)): 19.3 µM
Percentage change ([1]; subject A, Trial 3 Treatment): 121.4%
Net change in glycerol concentration after exercise ([1]; subject B, Trial 1 Treatment): 29.0 µM
Glycerol Concentration ([1]; subject B, Trial 1 Treatment, After exercise): 64.8 µM
Glycerol Concentration ([1]; subject B, Trial 1 Treatment, Before exercise (baseline)): 35.8 µM
Percentage change ([1]; subject B, Trial 1 Treatment): 80.8%
Net change in glycerol concentration after exercise ([1]; subject B, Trial 2 Treatment): 30.3 µM
Glycerol Concentration ([1]; subject B, Trial 2 Treatment, After exercise): 60.7 µM
Glycerol Concentration ([1]; subject B, Trial 2 Treatment, Before exercise (baseline)): 30.3 µM
Percentage change ([1]; subject B, Trial 2 Treatment): 100.0%
Net change in glycerol concentration after exercise ([1]; subject B, Trial 3 Treatment): 17.9 µM
Glycerol Concentration ([1]; subject B, Trial 3 Treatment, After exercise): 40.0 µM
Glycerol Concentration ([1]; subject B, Trial 3 Treatment, Before exercise (baseline)): 22.1 µM
Percentage change ([1]; subject B, Trial 3 Treatment): 80.3%
Net change in glycerol concentration after exercise ([1]; subject C, Trial 1 Treatment): 37.2 µM
Glycerol Concentration ([1]; subject C, Trial 1 Treatment, After exercise): 80.0 µM
Glycerol Concentration ([1]; subject C, Trial 1 Treatment, Before exercise (baseline)): 42.7 µM
Percentage change ([1]; subject C, Trial 1 Treatment): 87.1%
Net change in glycerol concentration after exercise ([1]; subject C, Trial 2 Treatment): 38.2 µM
Glycerol Concentration ([1]; subject C, Trial 2 Treatment, After exercise): 90.3 µM
Glycerol Concentration ([1]; subject C, Trial 2 Treatment, Before exercise (baseline)): 52.1 µM
Percentage change ([1]; subject C, Trial 2 Treatment): 73.3%
Net change in glycerol concentration after exercise ([1]; subject C, Trial 3 Treatment): 30.3 µM
Glycerol Concentration ([1]; subject C, Trial 3 Treatment, After exercise): 57.9 µM
Glycerol Concentration ([1]; subject C, Trial 3 Treatment, Before exercise (baseline)): 27.6 µM
Percentage change ([1]; subject C, Trial 3 Treatment): 110.0%
increase of effectiveness of exercise to burn fat ([1]; using percentage change in the concentration of glycerol, versus placebo): about 400%
pain in the small treated area ([2]; 24 hours after Day 3 application): greatly diminished
increase in healing rate ([2]; about 1/20th to 1/40th of a normal daily replacement dose, intermittent): greater than 100%
pigmentation or scar ([2]; after 1.5 years): no pigmentation or scar
pain ([2]; after application over entire area on Day 4): All pain was resolved overnight
erythema and tenderness ([2]; applied Day 3 to a small area, only where applied): decrease in erythema and tenderness
healing rate of a burn ([2]; applied twice, less than 80 μg per 400 cm^2, versus time course in medical literature): approximately doubled the healing rate
effect of the first application ([2]; cream applied to entire area on Day 1, observed over next 48 hours): no visible or other obvious indications that the first application had any effect
signs of inflammation or infection in the wound ([2]; day 5): no signs of inflammation or infection
re-epithelialization of the skin ([2]; day 5, 20 hours after second application to entire area): virtually completely re-epithelialized
time to complete re-epithelialization ([2]; post scald second degree partial thickness burn): five to six 24 hour periods
healing time versus average prior art healing time ([2]; prior art 19 days): fourteen days less than the average prior art healing time of 19 days
healing of the ulcer ([3]; 0.006% cream, 4 treatments every other day, over the next few weeks): substantial healing
time skin has remained intact ([3]; after treatment with 0.006% cream): ~6 months
transient change of TSH levels (TSH; 350 ug oral, over a few hour time period): 30%
minimum oral dosage which transiently changes TSH levels (TSH; oral, human): 350 µg
potency as thyroid hormone agonist [4]: potency about that of T-3
selectivity in binding [4]: slightly Beta selective
